Test results published in patent US10323036B2 (Nimbus Lakshmi, Inc., priority 2016, dated 2019).
Where two headings read alike, the source gives them in different places.

Molecular target: human TYK2 (JH2domain-pseudokinase) (Homo sapiens (Human), UniProt P29597)
Experiment: TYK2 JH2 Domain Binding Assay (KINOMEscan)
Conditions: read-out: JH2 Kd
[1] = Table 5, Tyk2 JH2 Domain Binding Assay

Chain of human TYK2 (JH2domain-pseudokinase) (P29597 556-888): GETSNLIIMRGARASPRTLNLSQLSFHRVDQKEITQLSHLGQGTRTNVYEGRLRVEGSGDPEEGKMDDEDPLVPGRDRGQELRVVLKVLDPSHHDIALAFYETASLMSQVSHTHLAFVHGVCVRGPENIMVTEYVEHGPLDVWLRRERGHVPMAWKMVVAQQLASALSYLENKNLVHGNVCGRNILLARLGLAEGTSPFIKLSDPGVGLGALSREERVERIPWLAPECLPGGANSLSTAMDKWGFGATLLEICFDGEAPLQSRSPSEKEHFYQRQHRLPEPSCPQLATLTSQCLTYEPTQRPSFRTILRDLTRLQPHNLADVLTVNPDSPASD

Kd [1] [nM] | Structure (SMILES) | Kd (Table 4, JH2 binding assay) [nM]
 | CN(c1ccccc1Nc1cc(NC(=O)[C@@H]2C[C@@H]2F)nc2[nH]n(C)c(=O)c12)S(C)(=O)=O [Compound I-216, (1S,2S)-2-fluoro-N-(2-methyl-4-((2-(N-methylmethylsulfonamido)phenyl)amino)-3-oxo-2,3-dihydro-1H-pyrazolo[3,4-b]pyridin-6-yl)cyclopropane-1-carboxamide] | 0.1 to 0.5
 | CCc1ccc(Nc2cc(NC(=O)C3CC3)nc3[nH]n(C)c(=O)c23)c(N(C)S(C)(=O)=O)c1 [Compound I-217, N-(4-((4-ethyl-2-(N-methylmethylsulfonamido)phenyl)amino)-2-methyl-3-oxo-2,3-dihydro-1H-pyrazolo[3,4-b]pyridin-6-yl)cyclopropanecarboxamide] | < 0.1
 | COCc1ccc(Nc2cc(NC(=O)C3CC3)nc3[nH]n(C)c(=O)c23)c(N(C)S(C)(=O)=O)c1 [Compound I-218] | < 0.1
 | CN(c1cc(N2CCC2)ccc1Nc1cc(NC(=O)C2CC2)nc2[nH]n(C)c(=O)c12)S(C)(=O)=O [Compound I-219, N-(4-((4-(azetidin-1-yl)-2-(N-methylmethylsulfonamido)phenyl)amino)-2-methyl-3-oxo-2,3-dihydro-1H-pyrazolo[3,4-b]pyridin-6-yl)cyclopropanecarboxamide] | 0.1 to 0.5
 | COC1CN(c2ccc(Nc3cc(NC(=O)C4CC4)nc4[nH]n(C)c(=O)c34)c(N(C)S(C)(=O)=O)c2)C1 [Compound I-220, N-(4-((4-(3-methoxyazetidin-1-yl)-2-(N-methylmethylsulfonamido)phenyl)amino)-2-methyl-3-oxo-2,3-dihydro-1H-pyrazolo[3,4-b]pyridin-6-yl)cyclopropane-carboxamide] | 0.1 to 0.5
 | COc1c(Cl)cccc1Nc1cc(Nc2cc3n(n2)CCOC3)nc2[nH]n(C)c(=O)c12 [Compound I-221, 4-((3-chloro-2-methoxyphenyl)amino)-6-((6,7-dihydro-4H-pyrazolo[5,1-c][1,4]oxazin-2-yl)amino)-2-methyl-1,2-dihydro-3H-pyrazolo[3,4-b]pyridin-3-one] | 0.1 to 0.5
 | COc1c(Cl)cccc1Nc1cc(Nc2cc3n(n2)CCCC3)nc2[nH]n(C)c(=O)c12 [Compound I-222, 4-((3-chloro-2-methoxyphenyl)amino)-2-methyl-6-((4,5,6,7-tetrahydropyrazolo[1,5-a]pyridin-2-yl)amino)-1,2-dihydro-3H-pyrazolo[3,4-b]pyridin-3-one] | 1 to 10
 | COc1cccnc1Nc1cc(NC(=O)C2CC2)nc2[nH]n(C)c(=O)c12 [Compound I-223, N-(4-((3-methoxypyridin-2-yl)amino)-2-methyl-3-oxo-2,3-dihydro-1H-pyrazolo[3,4-b]pyridin-6-yl)cyclopropanecarboxamide] | 1 to 10
 | CN(c1ccccc1Nc1cc(Nc2cnc3c(n2)CCC3)nc2[nH]n(C)c(=O)c12)S(C)(=O)=O [Compound I-225, N-(2-((6-((6,7-dihydro-5H-cyclopenta[b]pyrazin-2-yl)amino)-2-methyl-3-oxo-2,3-dihydro-1H-pyrazolo[3,4-b]pyridin-4-yl)amino)phenyl)-N-methylmethanesulfonamide] | < 0.1
 | CN(c1ccccc1Nc1cc(Nc2cc3c(cn2)OCC3)nc2[nH]n(C)c(=O)c12)S(C)(=O)=O [Compound I-226, N-(2-((6-((2,3-dihydrofuro[2,3-c]pyridin-5-yl)amino)-2-methyl-3-oxo-2,3-dihydro-1H-pyrazolo[3,4-b]pyridin-4-yl)amino)phenyl)-N-methylmethanesulfonamide] | 0.1 to 0.5
 | CN(c1ccccc1Nc1cc(Nc2cc3c(cn2)COC3)nc2[nH]n(C)c(=O)c12)S(C)(=O)=O [Compound I-227, N-(2-((6-((1,3-dihydrofuro[3,4-c]pyridin-6-yl)amino)-2-methyl-3-oxo-2,3-dihydro-1H-pyrazolo[3,4-b]pyridin-4-yl)amino)phenyl)-N-methylmethanesulfonamide] | < 0.1
 | CN(c1cc(Cl)ccc1Nc1cc(NC(=O)C2CC2)nc2[nH]n(C)c(=O)c12)S(C)(=O)=O [Compound I-228, N-(4-((4-chloro-2-(N-methylmethylsulfonamido)phenyl)amino)-2-methyl-3-oxo-2,3-dihydro-1H-pyrazolo[3,4-b]pyridin-6-yl)cyclopropanecarboxamide] | 0.1 to 0.5
 | Cc1ccc(Nc2cc(NC(=O)C3CC3)nc3[nH]n(C)c(=O)c23)c(N(C)S(C)(=O)=O)c1 [Compound I-229, N-(2-methyl-4-((4-methyl-2-(N-methylmethylsulfonamido)phenyl)amino)-3-oxo-2,3-dihydro-1H-pyrazolo[3,4-b]pyridin-6-yl)cyclopropanecarboxamide] | < 0.1
 | CN(c1cc(F)c(F)cc1Nc1cc(NC(=O)C2CC2)nc2[nH]n(C)c(=O)c12)S(C)(=O)=O [Compound I-230, N-(4-((4,5-difluoro-2-(N-methylmethylsulfonamido)phenyl)amino)-2-methyl-3-oxo-2,3-dihydro-1H-pyrazolo[3,4-b]pyridin-6-yl)cyclopropanecarboxamide] | 0.5 to 1
 | COc1c(Nc2cc(NC(=O)C3CC3)nc3[nH]n(C)c(=O)c23)cccc1C(=O)O [Compound I-231, 3-((6-(cyclopropanecarboxamido)-2-methyl-3-oxo-2,3-dihydro-1H-pyrazolo[3,4-b]pyridin-4-yl)amino)-2-methoxybenzoic acid] | 1 to 10
 | CN(c1cc(C2CC2)ccc1Nc1cc(NC(=O)C2CC2)nc2[nH]n(C)c(=O)c12)S(C)(=O)=O [Compound I-232] | < 0.1

Kd [1] [nM] | Structure (SMILES) | Kd (Table 4, JH2 binding assay) [nM]
 | CN(c1cc(C2CCOCC2)ccc1Nc1cc(NC(=O)C2CC2)nc2[nH]n(C)c(=O)c12)S(C)(=O)=O [Compound I-234] | 0.1 to 0.5
 | CN(c1cc(C(F)(F)F)ccc1Nc1cc(NC(=O)C2CC2)nc2[nH]n(C)c(=O)c12)S(C)(=O)=O [Compound I-235, N-(2-methyl-4-((2-(N-methylmethylsulfonamido)-4-(trifluoromethyl)phenyl)amino)-3-oxo-2,3-dihydro-1H-pyrazolo[3,4-b]pyridin-6-yl)cyclopropanecarboxamide] | 0.1 to 0.5
 | CN(c1cc(C2CCC2)ccc1Nc1cc(NC(=O)[C@@H]2C[C@@H]2F)nc2[nH]n(C)c(=O)c12)S(C)(=O)=O [Compound I-236, (1S,2S)-N-(4-((4-cyclobutyl-2-(N-methylmethylsulfonamido)phenyl)amino)-2-methyl-3-oxo-2,3-dihydro-1H-pyrazolo[3,4-b]pyridin-6-yl)-2-fluorocyclopropane-1-carboxamide] | > 10
 | Cn1[nH]c2nc(NC(=O)[C@@H]3CC3(F)F)cc(Nc3ccc(C4CC4)cc3S(C)(=O)=O)c2c1=O [Compound I-237] | 1 to 10
 | Cn1[nH]c2nc(NC(=O)[C@H]3CC3(F)F)cc(Nc3ccc(C4CC4)cc3S(C)(=O)=O)c2c1=O [Compound I-238, (R)-N-(4-((4-cyclopropyl-2-(methylsulfonyl)phenyl)amino)-2-methyl-3-oxo-2,3-dihydro-1H-pyrazolo[3,4-b]pyridin-6-yl)-2,2-difluorocyclopropane-1-carboxamide] | 0.1 to 0.5
 | Cn1[nH]c2nc(NC(=O)C3CC3(F)F)cc(Nc3ccc(C4CC4)cc3S(C)(=O)=O)c2c1=O (stereo not shown) [Compound I-239, N-(4-((4-cyclopropyl-2-(methylsulfonyl)phenyl)amino)-2-methyl-3-oxo-2,3-dihydro-1H-pyrazolo[3,4-b]pyridin-6-yl)-2,2-difluorocyclopropane-1-carboxamide] | 0.1 to 0.5
 | CN(c1cc(C2CCCOC2)ccc1Nc1cc(NC(=O)C2CC2)nc2[nH]n(C)c(=O)c12)S(C)(=O)=O (stereo not shown) [Compound I-240] | 0.1 to 0.5
 | COc1c(Nc2cc(N)nc3[nH]n(C)c(=O)c23)cccc1C(=O)O [Compound I-241, 3-((6-amino-2-methyl-3-oxo-2,3-dihydro-1H-pyrazolo[3,4-b]pyridin-4-yl)amino)-2-methoxybenzoic acid] | > 10
1 to 10 | COc1c(Nc2cc(NC(=O)C3CC3)ncc2-c2nnc(CO)o2)cccc1-c1ncn(C)n1 [VIII-5, N-(5-(5-(hydroxymethyl)-1,3,4-oxadiazol-2-yl)-4-((2-methoxy-3-(1-methyl-1H-1,2,4-triazol-3-yl)phenyl)amino)pyridin-2-yl)cyclopropanecarboxamide] | 
10 to 100 | COc1c(Nc2cc(NC(=O)C3CC3)ncc2-c2ncc(CO)s2)cccc1-c1ncn(C)n1 [VIII-6, N-(5-(5-(hydroxymethyl)thiazol-2-yl)-4-((2-methoxy-3-(1-methyl-1H-1,2,4-triazol-3-yl)phenyl)amino)pyridin-2-yl)cyclopropanecarboxamide] | 
1 to 10 | COc1c(Nc2cc(NC(=O)C3CC3)ncc2-c2nnc(C)s2)cccc1-c1ncn(C)n1 [VIII-7, N-(4-((2-methoxy-3-(1-methyl-1H-1,2,4-triazol-3-yl)phenyl)amino)-5-(5-methyl-1,3,4-thiadiazol-2-yl)pyridin-2-yl)cyclopropanecarboxamide] | 
> 100 | COc1c(Nc2cc(NC(=O)C3CC3)ncc2-c2ccon2)cccc1-c1nnn(C)n1 [VIII-8, N-(5-(isoxazol-3-yl)-4-((2-methoxy-3-(2-methyl-2H-tetrazol-5-yl)phenyl)amino)pyridin-2-yl)cyclopropanecarboxamide] | 
> 100 | COc1c(Nc2cc(NC(=O)C3CC3)ncc2-c2noc(CO)n2)cccc1-c1ncn(C)n1 [VIII-9, N-(5-(5-(hydroxymethyl)-1,2,4-oxadiazol-3-yl)-4-((2-methoxy-3-(1-methyl-1H-1,2,4-triazol-3-yl)phenyl)amino)pyridin-2-yl)cyclopropanecarboxamide] | 
> 100 | COc1c(Nc2cc(NC(=O)C3CC3)ncc2-n2cc(CO)cn2)cccc1-c1ncn(C)n1 [VIII-10, N-(5-(4-(hydroxymethyl)-1H-pyrazol-1-yl)-4-((2-methoxy-3-(1-methyl-1H-1,2,4-triazol-3-yl)phenyl)amino)pyridin-2-yl)cyclopropanecarboxamide] | 
10 to 100 | COc1c(Nc2cc(NC(=O)C3CC3)ncc2-c2cccnn2)cccc1-c1ncn(C)n1 [VIII-11, N-(4-((2-methoxy-3-(1-methyl-1H-1,2,4-triazol-3-yl)phenyl)amino)-5-(pyridazin-3-yl)pyridin-2-yl)cyclopropanecarboxamide] | 
